The source of these data is article PMC2736896 (2009).

This assay has as its target bilitranslocase (BTL) homologue. In words: inhibition of electrogenic BSP uptake into pulp microsomes, spectrophotometric. The class given is biochemical, Vitis vinifera.

By Ki is commonly meant the equilibrium dissociation constant of an inhibitor or competing ligand from its target. Low readings indicate tighter binding, high ones weaker binding. `O=C1C[C@@H](c2ccc(O)c(O)c2)Oc2cc(O)cc(O)c21` [eriodictyol]: the affinity corresponds to a Ki of 75.8 µM.

`O=c1c(O)c(-c2ccc(O)c(O)c2)oc2cc(O)cc(O)c12` [quercetin] yielded a Ki of 97.5 µM.
